Consider 12 compounds from patent publication US20120245161A1 (SANOFI, priority 2009, published 2012).

Counter-ions that a name gives are not always drawn.

The assay addresses T1, recombinant human beta tryptase (Homo sapiens, UniProt P20231).
T1 construct: made in house; host or cells: yeast cells
Put plainly: beta-Tryptase inhibition, chromogenic enzyme assay (substrate S2366, read at 405 nm). Particulars: Tryptase Ki (nM), Ki calculated from IC50: Ki=IC50/(1+[Substrate]/Km); 0.5 mM substrate, room temperature. It is filed as biochemical. Put shortly: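 Recombinant human beta tryptase (yeast-expressed; native lung enzyme also used), 50 ng/mL final, with 0.5 mM (2×Km) chromogenic substrate S2366; 30 min in the dark, room temperature, read at 405 nm. Compounds at 0.01-10 μM in duplicate for IC50; Ki=IC50/(1+[S]/Km).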

T1 sequence (P20231 31-275): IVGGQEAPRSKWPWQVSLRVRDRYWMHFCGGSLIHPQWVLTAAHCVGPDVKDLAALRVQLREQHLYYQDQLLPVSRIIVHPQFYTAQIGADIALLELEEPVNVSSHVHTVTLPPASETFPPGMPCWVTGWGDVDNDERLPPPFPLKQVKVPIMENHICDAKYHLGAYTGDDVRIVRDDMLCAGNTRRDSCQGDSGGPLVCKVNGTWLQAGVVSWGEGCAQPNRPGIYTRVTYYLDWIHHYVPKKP

As to `COCCn1cc(C(=O)N2CCC(c3cc(CN)ccc3F)CC2)c2c(-c3ccccc3)cccc21` [Example 60, [4-(5-Aminomethyl-2-fluoro-phenyl)-piperidin-1-yl]-[1-(2-methoxy-ethyl)-4-phenyl-1H-indol-3-yl]-methanone hydrochloride], the Ki is 22 nM. The same measure for `COCCn1cc(C(=O)N2CCC(c3cc(CN)ccc3F)CC2)c2c(C3CC3)cccc21` [Example 52, [4-(5-Aminomethyl-2-fluoro-phenyl)-piperidin-1-yl]-[4-cyclopropyl-1-(2-methoxy-ethyl)-1H-indol-3-yl]-methanone hydrochloride]: 49 nM. With `NCc1ccc(F)c(C2CCN(C(=O)c3cn(CCc4ccccc4)c4ccccc34)CC2)c1` [Example 15, [4-(5-Aminomethyl-2-fluoro-phenyl)-piperidin-1-yl]-(1-phenethyl-1H-indol-3-yl)-methanone hydrochloride], the Ki is 18 nM.

`COCCn1cc(C(=O)N2CCC(c3cc(CN)ccc3OCC(=O)OC)CC2)c2cccc(C)c21` [Example 23, (4-Aminomethyl-2-{1-[1-(2-methoxy-ethyl)-7-methyl-1H-indole-3-carbonyl]-piperidin-4-yl}-phenoxy)-acetic acid methyl ester hydrochloride]: the inhibition constant Ki is 42 nM.

Take `NCc1ccc(F)c(C2CCN(C(=O)c3cn(CCOC(F)(F)F)c4c(F)cccc34)CC2)c1` [Example 86, [4-(5-Aminomethyl-2-fluoro-phenyl)-piperidin-1-yl]-[7-fluoro-1-(2-trifluoromethoxy-ethyl)-1H-indol-3-yl]-methanone hydrochloride]: the Ki was 80 nM. For `COCCn1cc(C(=O)N2CCC(c3cc(CN)ccc3F)CC2)c2c(-c3ccc(OC(F)(F)F)cc3)cccc21` [Example 69, [4-(5-Aminomethyl-2-fluoro-phenyl)-piperidin-1-yl]-[1-(2-methoxy-ethyl)-4-(4-trifluoromethoxy-phenyl)-1H-indol-3-yl]-methanone hydrochloride], the Ki is 400 nM. `NCc1ccc(F)c(C2CCN(C(=O)c3cn(CCOCCO)c4c(OC(F)(F)F)cccc34)CC2)c1` [Example 27, [4-(5-Aminomethyl-2-fluoro-phenyl)-piperidin-1-yl]-{1-[2-(2-hydroxy-ethoxy)-ethyl]-7-trifluoromethoxy-1H-indol-3-yl}-methanone hydrochloride]: the Ki is 164 nM. The same measure for `COCCn1cc(C(=O)N2CCC(c3cc(CN)ccc3F)CC2)c2c(-c3ccc(OC)cc3)cccc21` [Example 70, [4-(5-Aminomethyl-2-fluoro-phenyl)-piperidin-1-yl]-[1-(2-methoxy-ethyl)-4-(4-methoxy-phenyl)-1H-indol-3-yl]-methanone hydrochloride]: 21 nM; for `COCCn1cc(C(=O)N2CCC(c3cc(CN)ccc3OCCc3ccccc3)CC2)c2cccc(C)c21` [Example 115, [4-(5-Aminomethyl-2-phenethyloxy-phenyl)-piperidin-1-yl]-[1-(2-methoxy-ethyl)-7-methyl-1H-indol-3-yl]-methanone hydrochloride]: 390 nM; for `Cc1cccc2c(C(=O)N3CCC(c4cc(CN)ccc4F)CC3)cn(CCOC(F)(F)F)c12` [Example 88, hydrochloride]: 239 nM.

On to `NCc1ccc(F)c(C2CCN(C(=O)c3cn(CCO)c4c(OC(F)(F)F)cccc34)CC2)c1` [Example 22, [4-(5-Aminomethyl-2-fluoro-phenyl)-piperidin-1-yl]-[1-(2-hydroxy-ethyl)-7-trifluoromethoxy-1H-indol-3-yl]-methanone hydrochloride], for which the Ki was 390 nM. The same measure for `CN1CCCCC1CCn1cc(C(=O)N2CCC(c3cc(CN)ccc3F)CC2)c2ccccc21` (stereo not drawn) [Example 30, [4-(5-Aminomethyl-2-fluoro-phenyl)-piperidin-1-yl]-{1-[2-(1-methyl-piperidin-2-yl)-ethyl]-1H-indol-3-yl}-methanone dihydrochloride]: 50 nM.
